From patent publication US11066392B2, “Inhibitors of indoleamine 2,3-dioxygenase and methods of their use” (BRISTOL-MYERS SQUIBB COMPANY, priority 2017, dated 2021)
Like-named read-outs stand apart in the source and are kept apart here.

Key:
human IDO1 = biological target: T1, human IDO1 (Homo sapiens, UniProt P14902); experiment: HEK293 cell-based indoleamine 2,3-dioxygenase (IDO) assay; conditions: human IDO1/HEK293 cells
T1 construct: expressed in transfected cells
Protocol: Assessment of inhibitor activity in HEK293 cell-based indoleamine 2,3-dioxygenase (IDO) assay.
HEK293 cells were transfected with a pCDNA-based mammalian expression vector harboring human IDO1 cDNA (NM 002164.2) by electroporation. They were cultured in medium (DMEM with 10% FBS) containing 1 mg/ml G418 for two weeks. Clones of HEK293 cells that stably expressed human IDO1 protein were selected and expanded for IDO inhibition assay.
The human IDO1/HEK293 cells were seeded at 10,000 cells per 50 μL per well with RPMI/phenol red free media contains 10% FBS in a 384-well black wall clear bottom tissue culture plate (Matrix Technologies LLC) 100 nL of certain concentration of compound was then added to each well using ECHO liquid handling systems. The cells were incubated for 20 hours in 37° C. incubator with 5% CO2.
The compound treatments were stopped by adding trichloroacetic acid (Sigma-Aldrich) to a final concentration at 0.2%. The cell plate was further incubated at 50° C. for 30 minute. The equal volume supernatant (20 μL) and 0.2% (w/v) Ehrlich reagent (4-dimethylaminobenzaldehyde, Sigma-Aldrich) in glacial acetic acid were mixed in a new clear bottom 384-well plate. This plate was then incubated at room temperature for 30 minute. The absorbance at 490 nm was measured on Envision plate reader.
Compound IC50 values were calculated using the counts of 500 nM of a reference standard treatment as one hundred percent inhibition, and counts of no compound but DMSO treatment as zero percent inhibition.
Activity for compounds described herein is provided in Table 1, wherein potency levels are provided as follows: (Potency: IDO IC50: A<0.01 μM; B<0.1 μM; C<10 μM)

[1] = biological target: indoleamine 2,3-dioxygenase (IDO) (Homo sapiens, UniProt P14902); experiment: HeLa cell-based indoleamine 2,3-dioxygenase (IDO) assay (kynurenine production, IFNγ-stimulated); conditions: HeLa cells
indoleamine 2,3-dioxygenase (IDO), sequence (P14902 whole entry): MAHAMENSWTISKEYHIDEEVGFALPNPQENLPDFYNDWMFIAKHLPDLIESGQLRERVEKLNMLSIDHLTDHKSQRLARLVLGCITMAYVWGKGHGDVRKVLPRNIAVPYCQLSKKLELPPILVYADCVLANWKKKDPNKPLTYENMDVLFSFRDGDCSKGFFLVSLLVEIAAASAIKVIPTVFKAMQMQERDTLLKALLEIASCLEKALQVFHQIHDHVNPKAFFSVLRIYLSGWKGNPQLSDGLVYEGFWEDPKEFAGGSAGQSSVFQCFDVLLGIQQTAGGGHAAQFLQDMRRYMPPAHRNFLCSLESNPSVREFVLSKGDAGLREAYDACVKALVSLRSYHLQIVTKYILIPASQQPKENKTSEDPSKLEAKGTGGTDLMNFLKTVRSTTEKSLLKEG

[2] = 20 hours incubation, read-out: IDO1 HEK Human IC50
[3] = potency class, read-out: Patent Potency Hela IC50 A < 10 nM, B > 10 nM, C > 100 nM
[4] = IFNγ 25 ng/mL, 48 hour incubation, read-out: IDO Hela IC50

T1 sequence (P14902 whole entry): as above

Row | IC50 (human IDO1; [2]) [nM] | IC50 [1, 3] [nM] | IC50 (human IDO1; potency class, read-out: Patent Potency HEK IC50 A < 10 nM, B > 10 nM, C > 100 nM) [nM] | IC50 [1, 4] [nM] | Structure (SMILES)
1 | 224 |  |  |  | CC[C@@H](NC(=O)c1ccc(OC)nc1)[C@H]1CC[C@@H](c2ccnc3ccc(F)cc32)CC1 (single isomer, unassigned) [Example 10a, N-(1-(4-(6-Fluoroquinolin-4-yl)cyclohexyl)propyl)-6-methoxynicotinamide]
2 |  | < 10 | < 10 |  | CC[C@@H](NC(=O)c1ccc(OC)nc1)[C@H]1CC[C@@H](c2ccnc3ccc(F)cc32)CC1 (single isomer, unassigned) [Example 10b, N-(1-(4-(6-Fluoroquinolin-4-yl)cyclohexyl)propyl)-6-methoxynicotinamide]
3 | 55 |  |  |  | CC[C@@H](NC(=O)c1ccc(OC)nc1)[C@H]1CC[C@@H](c2ccnc3ccc(F)cc32)CC1 (single isomer, unassigned) [Example 10c, N-(1-(4-(6-Fluoroquinolin-4-yl)cyclohexyl)propyl)-6-methoxynicotinamide]
4 | 37 |  |  |  | CC[C@@H](NC(=O)c1ccc(OC)nc1)[C@H]1CC[C@@H](c2ccnc3ccc(F)cc32)CC1 (single isomer, unassigned) [Example 10d, N-(1-(4-(6-Fluoroquinolin-4-yl)cyclohexyl)propyl)-6-methoxynicotinamide]
5 | 56 |  |  | 30 | COc1ccc(-c2ccc(C(=O)N[C@H](C)[C@H]3CC[C@@H](c4ccnc5ccc(F)cc54)CC3)cn2)cn1 [Example 1, N—((R)-1-((1s,4s)-4-(6-Fluoroquinolin-4-yl)cyclohexyl)ethyl)-6′-methoxy-2,3′-bipyridine-5-carboxamide]
6 | 1 | < 10 |  |  | COc1ccc(C(=O)N[C@H](C)[C@H]2CC[C@@H](c3ccnc4ccc(F)cc43)CC2)cn1 [Example 2, N-((R)-1-((1s,4S)-4-(6-Fluoroquinolin-4-yl)cyclohexyl)ethyl)-6-methoxynicotinamide]
7 | 252 |  |  |  | C[C@@H](NC(=O)c1ccc(O)nc1)[C@H]1CC[C@@H](c2ccnc3ccc(F)cc32)CC1 [Example 3, N-((R)-1-((1s,4S)-4-(6-Fluoroquinolin-4-yl)cyclohexyl)ethyl)-6-hydroxynicotinamide]
8 | 11 |  |  | 10 | C[C@@H](NC(=O)c1ccc(-n2cccn2)nc1)[C@H]1CC[C@@H](c2ccnc3ccc(F)cc32)CC1 [Example 4, N-((R)-1-((1s,4S)-4-(6-Fluoroquinolin-4-yl)cyclohexyl)ethyl)-6-(1H-pyrazol-1-yl)nicotinamide]
9 | 10 | < 10 |  |  | C[C@@H](NC(=O)c1ccc(Cl)nc1)[C@H]1CC[C@@H](c2ccnc3ccc(F)cc32)CC1 [Example 5, 6-Chloro-N-((R)-1-((1s,4S)-4-(6-fluoroquinolin-4-yl)cyclohexyl)ethyl)nicotinamide]
10 | 488 |  |  |  | COCCOc1ccc(-c2ccc(C(=O)N[C@H](C)[C@H]3CC[C@@H](c4ccnc5ccc(F)cc54)CC3)cn2)cc1 [Example 6]
11 | 5 |  |  | 10 | C[C@@H](NC(=O)c1ccc(F)nc1)[C@H]1CC[C@@H](c2ccnc3ccc(F)cc32)CC1 [Example 7, 6-Fluoro-N-((R)-1-((1s,4S)-4-(6-fluoroquinolin-4-yl)cyclohexyl)ethyl)nicotinamide]
12 | 5 |  |  | 10 | COc1ncc(C(=O)N[C@H](C)[C@H]2CC[C@@H](c3ccnc4ccc(F)cc43)CC2)cn1 [Example 8, N-((R)-1-((1s,4S)-4-(6-Fluoroquinolin-4-yl)cyclohexyl)ethyl)-2-methoxypyrimidine-5-carboxamide]
13 | 28 |  |  |  | Cc1ncc(C(=O)N[C@H](C)[C@H]2CC[C@@H](c3ccnc4ccc(F)cc43)CC2)cn1 [Example 9, N-((R)-1-((1s,4S)-4-(6-Fluoroquinolin-4-yl)cyclohexyl)ethyl)-2-methylpyrimidine-5-carboxamide]
14 | 10 |  |  | 10 | C[C@@H](NC(=O)c1cccnc1)[C@H]1CC[C@@H](c2ccnc3ccc(F)cc32)CC1 [Example 33, N—((R)-1-((cis)-4-(6-fluoroquinolin-4-yl)cyclohexyl)ethyl)nicotinamide]
15 | 13 |  |  | 10 | C[C@@H](NC(=O)c1ccncc1)[C@H]1CC[C@@H](c2ccnc3ccc(F)cc32)CC1 [Example 34, N-((R)-1-((cis)-4-(6-fluoroquinolin-4-yl)cyclohexyl)ethyl)isonicotinamide]
16 | 22 |  |  | 10 | C[C@@H](NC(=O)c1cnccn1)[C@H]1CC[C@@H](c2ccnc3ccc(F)cc32)CC1 [Example 35, N-((R)-1-((cis)-4-(6-fluoroquinolin-4-yl)cyclohexyl)ethyl)pyrazine-2-carboxamide]
17 | 39 |  |  | 30 | C[C@@H](NC(=O)c1cncnc1)[C@H]1CC[C@@H](c2ccnc3ccc(F)cc32)CC1 [Example 36, N-((R)-1-((cis)-4-(6-fluoroquinolin-4-yl)cyclohexyl)ethyl)pyrimidine-5-carboxamide]
18 |  | > 100 |  |  | CCC(NC(=O)c1ccc(OC)nc1)[C@H]1CC[C@@H](c2cc[nH]c(=O)c2C(F)F)CC1 (some centres unmarked) [Example 64-2, N-(1-((1s,4s)-4-(3-(difluoromethyl)-2-oxo-1,2-dihydropyridin-4-yl)cyclohexyl)propyl)-6-methoxynicotinamide]
